Test: xn = mol fraction of the nth substance listed
Conditions: Liquid, Vibrating tube method

CCCCn1cc[n+](C)c1.F[B-](F)(F)F [1-butyl-3-methylimidazolium tetrafluoroborate] + CO
mass density [kg/m3]
Conditions	348.15 K	373.15 K
620 kPa, x1 = 0.0433	–	797.86
620 kPa, x1 = 0.9102	–	1149.53
680 kPa, x1 = 0.0087	–	731.31
840 kPa, x1 = 0.1302	–	910.67
840 kPa, x1 = 0.7501	–	1131.82
880 kPa, x1 = 0.4988	–	1088.22
960 kPa, x1 = 0.2626	–	1006.13
5010 kPa, x1 = 0.7501	–	1134.65
5320 kPa, x1 = 0.2626	–	1009.96
5410 kPa, x1 = 0.0087	–	738.04
5410 kPa, x1 = 0.9102	–	1152.54
5450 kPa, x1 = 0.1302	–	915.31
5470 kPa, x1 = 0.4988	–	1091.64
5500 kPa, x1 = 0.0433	–	804.09
10030 kPa, x1 = 0.9102	–	1155.38
10070 kPa, x1 = 0.2626	–	1014.1
10080 kPa, x1 = 0.4988	–	1095
10280 kPa, x1 = 0.1302	–	919.98
10320 kPa, x1 = 0.7501	–	1138.17
10390 kPa, x1 = 0.0087	–	744.76
10780 kPa, x1 = 0.0433	–	810.45
15090 kPa, x1 = 0.7501	–	1141.24
15170 kPa, x1 = 0.1302	–	924.53
15230 kPa, x1 = 0.2626	–	1018.44
15390 kPa, x1 = 0.0433	–	815.67
15430 kPa, x1 = 0.4988	–	1098.81
15450 kPa, x1 = 0.0087	–	751.2
15720 kPa, x1 = 0.9102	–	1158.79
20090 kPa, x1 = 0.2626	–	1022.37
20140 kPa, x1 = 0.9102	1177.87	–
20210 kPa, x1 = 0.0433	–	820.81
20370 kPa, x1 = 0.1302	949.49	–
20420 kPa, x1 = 0.1302	–	929.19
20420 kPa, x1 = 0.2626	1040.92	–
20420 kPa, x1 = 0.7501	–	1144.57
20440 kPa, x1 = 0.0087	779.62	–
20580 kPa, x1 = 0.0087	–	757.35
20610 kPa, x1 = 0.4988	–	1102.41
20610 kPa, x1 = 0.9102	–	1161.64
24990 kPa, x1 = 0.0433	–	825.57
25080 kPa, x1 = 0.7501	–	1147.41
25180 kPa, x1 = 0.0433	846.4	–
25270 kPa, x1 = 0.1302	953.3	–
25310 kPa, x1 = 0.2626	1044.36	–
25310 kPa, x1 = 0.4988	1122.86	–
25320 kPa, x1 = 0.0087	784.47	–
25330 kPa, x1 = 0.1302	–	933.36
25340 kPa, x1 = 0.2626	–	1026.45
25340 kPa, x1 = 0.4988	–	1105.63
25580 kPa, x1 = 0.0087	–	762.96
25620 kPa, x1 = 0.7501	1164.19	–
25620 kPa, x1 = 0.9102	1180.73	–
25830 kPa, x1 = 0.9102	–	1164.62
29810 kPa, x1 = 0.1302	–	936.98
30070 kPa, x1 = 0.7501	1166.56	–
30080 kPa, x1 = 0.2626	–	1029.97
30080 kPa, x1 = 0.4988	–	1108.78
30090 kPa, x1 = 0.4988	1125.66	–
30140 kPa, x1 = 0.9102	1183.03	1167.01
30150 kPa, x1 = 0.0087	789.02	–
30160 kPa, x1 = 0.0433	850.67	–
30210 kPa, x1 = 0.2626	1047.7	–
30410 kPa, x1 = 0.7501	–	1150.55
30560 kPa, x1 = 0.1302	957.16	–
35010 kPa, x1 = 0.7501	1169.13	–
35080 kPa, x1 = 0.2626	1050.92	–
35120 kPa, x1 = 0.0087	793.42	–
35260 kPa, x1 = 0.4988	1128.6	–
35420 kPa, x1 = 0.1302	960.46	–
35740 kPa, x1 = 0.0433	855.14	–
35740 kPa, x1 = 0.9102	1185.8	–
39640 kPa, x1 = 0.0087	797.19	–
39720 kPa, x1 = 0.1302	963.19	–
39920 kPa, x1 = 0.2626	1054.02	–
39920 kPa, x1 = 0.4988	1131.18	–
39980 kPa, x1 = 0.9102	1187.84	–
39990 kPa, x1 = 0.7501	1171.65	–
40010 kPa, x1 = 0.0433	858.32	–

— the NIST ThermoML archive (doi:10.1016/j.jct.2008.05.005)
